Laboratory results taken from ChEMBL document CHEMBL4152276, “Design, synthesis and biological evaluation of N-phenyl-(2,4-dihydroxypyrimidine-5-sulfonamido)benzoyl hydrazide derivatives as thymidylate synthase (TS) inhibitors and as potential antitumor drugs” (Eur J Med Chem, 2018).
Active and inactive are the calls of the source. No cut-off for these calls is given here.

Legend:
A549 [1] = assay: Antiproliferative activity against human A549 cells at 3.2 uM after 24 hrs by MTT assay relative to control; type: functional
A549 [2] = assay: Antiproliferative activity against human A549 cells at 20 uM after 24 hrs by MTT assay relative to control; type: functional
A549 [3] = assay: Antiproliferative activity against human A549 cells at 0.512 uM after 24 hrs by MTT assay relative to control; type: functional
A549 [4] = assay: Induction of apoptosis in human A549 cells assessed as decrease in ratio of Bcl2/Bax at 0.5 uM after 24 hrs by Western blot method relative to control; type: functional
OVCAR-3 = assay: Antiproliferative activity against human OVCAR3 cells after 24 hrs by MTT assay; type: functional, cell-based; settings: OVCAR-3, 24 h
[5] = Selectivity index, ratio of CC50 for human HTB125 cells to IC50 for human A549 cells; type: toxicity; settings: HTB125 cells (CC50) versus A549 cells (IC50)
A549 [6] = assay: Induction of apoptosis in human A549 cells assessed as early apoptotic cells at 1 uM after 24 hrs by annexin V-FITC/propidium iodide staining-based flow cytometric method (reference value: 1.2%); type: functional
[7] = Selectivity index, ratio of CC50 for human GES1 cells to IC50 for human A549 cells; type: toxicity; settings: GES1 cells (CC50) versus A549 cells (IC50)
A549 [8] = assay: Induction of apoptosis in human A549 cells assessed as necrotic cells at 3 uM after 24 hrs by annexin V-FITC/propidium iodide staining-based flow cytometric method (reference value: 0%); type: functional
A549 [9] = assay: Induction of apoptosis in human A549 cells assessed as upregulation of bax protein expression at 0.5 to 3 uM after 24 hrs by Western blot method; type: functional, cell-based
A549 [10] = assay: Antiproliferative activity against human A549 cells after 24 hrs by MTT assay; type: functional, cell-based; settings: A549, 24 h
A549 [11] = assay: Induction of apoptosis in human A549 cells assessed as necrotic cells at 1.5 uM after 24 hrs by annexin V-FITC/propidium iodide staining-based flow cytometric method (reference value: 0%); type: functional
A549 [12] = assay: Induction of apoptosis in human A549 cells assessed as viable cells at 0.5 uM after 24 hrs by annexin V-FITC/propidium iodide staining-based flow cytometric method (reference value: 97.7%); type: functional; settings: A549, 24 h, read-out: Activity
A549 [13] = assay: Antiproliferative activity against human A549 cells at 1.28 uM after 24 hrs by MTT assay relative to control; type: functional
A549 [14] = assay: Induction of apoptosis in human A549 cells assessed as early apoptotic cells at 3 uM after 24 hrs by annexin V-FITC/propidium iodide staining-based flow cytometric method (reference value: 1.2%); type: functional
A549 [15] = assay: Induction of apoptosis in human A549 cells assessed as early apoptotic cells at 1.5 uM after 24 hrs by annexin V-FITC/propidium iodide staining-based flow cytometric method (reference value: 1.2%); type: functional
A549 [16] = assay: Induction of apoptosis in human A549 cells assessed as increase in cleaved caspase-3 levels at 0.5 to 3 uM after 24 hrs by Western blot method; type: functional, cell-based
[17] = Selectivity index, ratio of CC50 for HPAEpiC to IC50 for human A549 cells; type: toxicity; settings: HPAEpiC cells (CC50) versus A549 cells (IC50)
A549 [18] = assay: Induction of apoptosis in human A549 cells assessed as late apoptotic cells at 3 uM after 24 hrs by annexin V-FITC/propidium iodide staining-based flow cytometric method (reference value: 1.1%); type: functional
[19] = Selectivity index, ratio of CC50 for human IOSE80 cells to IC50 for human A549 cells; type: toxicity; settings: IOSE80 cells (CC50) versus A549 cells (IC50)
A549 [20] = assay: Induction of apoptosis in human A549 cells assessed as late apoptotic cells at 0.5 uM after 24 hrs by annexin V-FITC/propidium iodide staining-based flow cytometric method (reference value: 1.1%); type: functional
A549 [21] = assay: Induction of apoptosis in human A549 cells assessed as viable cells at 3 uM after 24 hrs by annexin V-FITC/propidium iodide staining-based flow cytometric method (reference value: 97.7%); type: functional; settings: A549, 24 h, read-out: Activity
A549 [22] = assay: Antiproliferative activity against human A549 cells at 8 uM after 24 hrs by MTT assay relative to control; type: functional
A549 [23] = assay: Induction of apoptosis in human A549 cells assessed as decrease in ratio of Bcl2/Bax at 3 uM after 24 hrs by Western blot method relative to control; type: functional
A549 [24] = assay: Induction of apoptosis in human A549 cells assessed as late apoptotic cells at 1 uM after 24 hrs by annexin V-FITC/propidium iodide staining-based flow cytometric method (reference value: 1.1%); type: functional
MDA-MB-231 = assay: Antiproliferative activity against human MDA-MB-231 cells after 24 hrs by MTT assay; type: functional, cell-based; settings: MDA-MB-231, 24 h
A549 [25] = assay: Induction of apoptosis in human A549 cells assessed as necrotic cells at 0.5 uM after 24 hrs by annexin V-FITC/propidium iodide staining-based flow cytometric method (reference value: 0%); type: functional
A549 [26] = assay: Induction of apoptosis in human A549 cells assessed as viable cells at 1 uM after 24 hrs by annexin V-FITC/propidium iodide staining-based flow cytometric method (reference value: 97.7%); type: functional; settings: A549, 24 h, read-out: Activity
SGC-7901 = assay: Antiproliferative activity against human SGC7901 cells after 24 hrs by MTT assay; type: functional, cell-based; settings: SGC-7901, 24 h
A549 [27] = assay: Induction of apoptosis in human A549 cells assessed as viable cells at 1.5 uM after 24 hrs by annexin V-FITC/propidium iodide staining-based flow cytometric method (reference value: 97.7%); type: functional; settings: A549, 24 h, read-out: Activity
A549 [28] = assay: Induction of apoptosis in human A549 cells assessed as necrotic cells at 1 uM after 24 hrs by annexin V-FITC/propidium iodide staining-based flow cytometric method (reference value: 0%); type: functional
A549 [29] = assay: Induction of apoptosis in human A549 cells assessed as early apoptotic cells at 0.5 uM after 24 hrs by annexin V-FITC/propidium iodide staining-based flow cytometric method (reference value: 1.2%); type: functional
A549 [30] = assay: Induction of apoptosis in human A549 cells assessed as decrease in ratio of Bcl2/Bax at 1 uM after 24 hrs by Western blot method relative to control; type: functional
A549 [31] = assay: Induction of apoptosis in human A549 cells assessed as late apoptotic cells at 1.5 uM after 24 hrs by annexin V-FITC/propidium iodide staining-based flow cytometric method (reference value: 1.1%); type: functional
A549 [32] = assay: Induction of apoptosis in human A549 cells assessed as decrease in ratio of Bcl2/Bax at 1.5 uM after 24 hrs by Western blot method relative to control; type: functional

## O=C(NNC(=O)c1ccccc1NS(=O)(=O)c1cnc(O)nc1O)c1cccc(Cl)c1
A549 [1]
  Activity: 55.39%
A549 [2]
  Activity: 82.54%
A549 [3]
  Activity: 35.83%
A549 [4]
  fold change (FC): 0.8
OVCAR-3
  IC50: 2.08 µM
[5]
  selectivity ratio: 5.73
A549 [6]
  Activity: 9.8%
[7]
  selectivity ratio: 14.2
A549 [8]
  Activity: 0.4%
A549 [9]
  Activity: Active
A549 [10]
  IC50: 1.26 µM
A549 [11]
  Activity: 0%
A549 [12]
  viability at 0.5 µM: 91.4%
A549 [13]
  Activity: 51.21%
A549 [14]
  Activity: 35.5%
A549 [15]
  Activity: 19.6%
A549 [16]
  Activity: Active
[17]
  selectivity ratio: 16.7
A549 [18]
  Activity: 3.9%
[19]
  selectivity ratio: 11.3
A549 [20]
  Activity: 1.6%
A549 [21]
  viability at 3 µM: 60.2%
A549 [22]
  Activity: 66.28%
A549 [23]
  fold change (FC): 0.17
A549 [24]
  Activity: 2.7%
MDA-MB-231
  IC50: 4.42 µM
A549 [25]
  Activity: 0.1%
A549 [26]
  viability at 1 µM: 87.4%
SGC-7901
  IC50: 1.82 µM
A549 [27]
  viability at 1.5 µM: 77.9%
A549 [28]
  Activity: 0.1%
A549 [29]
  Activity: 6.9%
A549 [30]
  fold change (FC): 0.54
A549 [31]
  Activity: 2.5%
A549 [32]
  fold change (FC): 0.3
